The values below come from patent publication US20240239781A1, “1H-PYRAZOLE DERIVATIVES AS SIGMA LIGANDS” (ACONDICIONAMIENTO TARRASENSE, priority 2021, published 2024).

Usually Ki stands for a measure of affinity in units of concentration, obtained from inhibition or displacement.

For one assay, the target named is T1, human σ2/TMEM97 receptor (Homo sapiens, UniProt Q5BJF2).
T1 construct: expressed in transfected cells; host or cells: HEK-293
Nature of the assay: Binding assay to human σ2/TMEM97 receptor ([3H]-DTG, transfected HEK-293 membranes). Particulars: class scale, read-out: Binding σ-2 Ki. Here is the method:
Transfected HEK-293 membranes (15 μg) were incubated with 10 nM [^3H]-1,3-Di-o-tolylguanidine (DTG) in assay buffer containing Tris-HCl 50 mM at pH 8.0. NSB (non-specific binding) was measured by adding 10 μM haloperidol. The binding of the test compound was measured at either one concentration (% inhibition at 1 or 10 μM) or five different concentrations to determine affinity values (Ki). Plates were incubated at 25° C. for 120 minutes. After the incubation period, the reaction mix was transferred to MultiScreen HTS, FC plates (Millipore), filtered and washed 3 times with ice-cold 10 mM Tris-HCL (pH 8.0). Filters were dried and counted at approximately 40% efficiency in a MicroBeta scintillation counter (Perkin-Elmer) using EcoScint liquid scintillation cocktail.

A further assay addresses T2, human σ1 receptor (Homo sapiens, UniProt Q99720).
T2 construct: expressed in transfected cells; host or cells: HEK-293
Nature of the assay: Human σ1 receptor radioligand assay ([3H](+)-pentazocine, transfected HEK-293 membranes). Particulars: class scale, read-out: Binding σ-1 Ki. Here is the method:
Transfected HEK-293 membranes (7 μg) were incubated with 5 nM of [^3H](+)-pentazocine in assay buffer containing Tris-HCl 50 mM at pH 8. NBS (non-specific binding) was measured by adding 10 μM haloperidol. The binding of the test compound was measured at either one concentration (% inhibition at 1 or 10 μM) or five different concentrations to determine affinity values (Ki). Plates were incubated at 37° C. for 120 minutes. After the incubation period, the reaction mix was then transferred to MultiScreen HTS, FC plates (Millipore), filtered and plates were washed 3 times with ice-cold 10 mM Tris-HCL (pH7.4). Filters were dried and counted at approximately 40% efficiency in a MicroBeta scintillation counter (Perkin-Elmer) using EcoScint liquid scintillation cocktail.

T1 sequence (Q5BJF2 whole entry): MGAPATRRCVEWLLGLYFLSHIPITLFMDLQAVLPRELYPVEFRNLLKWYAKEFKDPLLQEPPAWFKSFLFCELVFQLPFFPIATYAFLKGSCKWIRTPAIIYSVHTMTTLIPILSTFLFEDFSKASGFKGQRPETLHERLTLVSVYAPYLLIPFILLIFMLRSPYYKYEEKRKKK
T2 sequence (Q99720 whole entry): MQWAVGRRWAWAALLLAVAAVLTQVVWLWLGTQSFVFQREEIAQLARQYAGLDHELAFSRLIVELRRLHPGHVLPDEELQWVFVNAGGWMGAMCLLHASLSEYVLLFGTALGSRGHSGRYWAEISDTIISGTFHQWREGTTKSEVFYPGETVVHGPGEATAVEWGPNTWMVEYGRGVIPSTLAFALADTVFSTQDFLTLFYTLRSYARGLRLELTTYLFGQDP

As to `Cc1cc(-c2nn(C)c(Cl)c2CN2CCC(CNCCC(C)C)C2)no1` (stereo not drawn) [Example 29, N-((1-((5-Chloro-1-methyl-3-(5-methylisoxazol-3-yl)-1H-pyrazol-4-yl)methyl)pyrrolidin-3-yl)methyl)-3-methylbutan-1-amine], the inhibitory constant (Ki) on human σ2/TMEM97 receptor lay in the range of 100 to 500 nM; on human σ1 receptor it was 500 to 1000 nM.
Regarding `Cn1nc(-c2cccnc2)c(CN2CCCCC(NCCC(C)(C)C)C2)c1Cl` (stereo not drawn) [Example 30, 1-((5-Chloro-1-methyl-3-(pyridin-3-yl)-1H-pyrazol-4-yl)methyl)-N-(3,3-dimethylbutyl)azepan-3-amine], the results for the inhibition constant Ki at human σ2/TMEM97 receptor and on human σ1 receptor were over 1000 nM and 100 to 500 nM, respectively.
As for `CC(C)CCNC1CCCCN(Cc2c(-c3cccnc3)nn(C)c2Cl)C1` (stereo not drawn) [Example 31, 1-((5-Chloro-1-methyl-3-(pyridin-3-yl)-1H-pyrazol-4-yl)methyl)-N-isopentylazepan-3-amine], the figures for the Ki at human σ2/TMEM97 receptor and at human σ1 receptor were over 1000 nM and 500 to 1000 nM, respectively.
For `CC(C)CCNC1CCCCN(Cc2c(-c3nccn3C)nn(C)c2Cl)C1` (stereo not drawn) [Example 32, 1-((5-Chloro-1-methyl-3-(1-methyl-1H-imidazol-2-yl)-1H-pyrazol-4-yl)methyl)-N-isopentylazepan-3-amine], the Ki at human σ2/TMEM97 receptor is 100 to 500 nM; on human σ1 receptor, over 1000 nM.
`Cn1nc(-c2ccon2)c(CN2CCCCC(NCCC(C)(C)C)C2)c1Cl` (stereo not drawn) [Example 33, 1-((5-Chloro-3-(isoxazol-3-yl)-1-methyl-1H-pyrazol-4-yl)methyl)-N-(3,3-dimethylbutyl)azepan-3-amine]: the Ki on human σ2/TMEM97 receptor and on human σ1 receptor was 100 to 500 nM throughout.
As to `CC(C)CCNC1CCCCN(Cc2c(-c3ccon3)nn(C)c2Cl)C1` (stereo not drawn) [Example 34, 1-((5-Chloro-3-(isoxazol-3-yl)-1-methyl-1H-pyrazol-4-yl)methyl)-N-isopentylazepan-3-amine], the Ki on human σ2/TMEM97 receptor fell in the range of 100 to 500 nM; at human σ1 receptor, 500 to 1000 nM.
With `COc1ccc(-c2nn(C)c(Cl)c2CN2CCCCC(NCCC(C)(C)C)C2)nc1` (stereo not drawn) [Example 35, 1-((5-Chloro-3-(5-methoxypyridin-2-yl)-1-methyl-1H-pyrazol-4-yl)methyl)-N-(3,3-dimethylbutyl)azepan-3-amine], the values for the inhibitory constant (Ki) on human σ2/TMEM97 receptor and on human σ1 receptor were over 1000 nM and 500 to 1000 nM, respectively.
As for `COc1ccc(-c2nn(C)c(Cl)c2CN2CCCCC(NCCC(C)C)C2)nc1` (stereo not drawn) [Example 36, 1-((5-Chloro-3-(5-methoxypyridin-2-yl)-1-methyl-1H-pyrazol-4-yl)methyl)-N-isopentylazepan-3-amine], the inhibition constant (Ki) is over 1000 nM on human σ2/TMEM97 receptor and 500 to 1000 nM at human σ1 receptor.
For `Cc1onc(-c2nn(C)c(Cl)c2CN2CCCCC(NCCC(C)C)C2)c1C` (stereo not drawn) [Example 37, 1-((5-Chloro-3-(4,5-dimethylisoxazol-3-yl)-1-methyl-1H-pyrazol-4-yl)methyl)-N-isopentylazepan-3-amine], the inhibitory constant (Ki) on human σ2/TMEM97 receptor and on human σ1 receptor was 100 to 500 nM throughout.
Consider `Cc1onc(-c2nn(C)c(Cl)c2CN2CCCCC(NCCC(C)(C)C)C2)c1C` (stereo not drawn) [Example 38, 1-((5-Chloro-3-(4,5-dimethylisoxazol-3-yl)-1-methyl-1H-pyrazol-4-yl)methyl)-N-(3,3-dimethylbutyl)azepan-3-amine], for which the Ki at human σ2/TMEM97 receptor and at human σ1 receptor was 100 to 500 nM each time.
Regarding `CC(C)CCNC1CCCCN(Cc2c(-c3cccc(O)n3)nn(C)c2Cl)C1` (stereo not drawn) [Example 39, 6-(5-Chloro-4-((3-(isopentylamino)azepan-1-yl)methyl)-1-methyl-1H-pyrazol-3-yl)pyridin-2-ol], the inhibition constant (Ki) was in the range of 100 to 500 nM on human σ2/TMEM97 receptor and 500 to 1000 nM at human σ1 receptor.
With `CC(C)CCN[C@H]1CCCCN(Cc2c(-c3noc4c3COCC4)nn(C)c2Cl)C1` [Example 40, (S)-1-((5-Chloro-3-(6,7-dihydro-4H-pyrano[3,4-d]isoxazol-3-yl)-1-methyl-1H-pyrazol-4-yl)methyl)-N-isopentylazepan-3-amine], the Ki at human σ2/TMEM97 receptor and on human σ1 receptor was 100 to 500 nM throughout.
`Cc1cc(-c2nn(C)c(Cl)c2CN2CCC(CNCCC(C)C)CC2)no1` [Example 41, N-((1-((5-Chloro-1-methyl-3-(5-methylisoxazol-3-yl)-1H-pyrazol-4-yl)methyl)piperidin-4-yl)methyl)-3-methylbutan-1-amine]: the inhibition constant (Ki) at human σ2/TMEM97 receptor and on human σ1 receptor was 100 to 500 nM throughout.
As to `Cc1cc(-c2nn(C)c(Cl)c2CN2CCC(CN(CC(C)C)CC(C)C)C2)no1` (stereo not drawn) [Example 42, N-((1-((5-Chloro-1-methyl-3-(5-methylisoxazol-3-yl)-1H-pyrazol-4-yl)methyl)pyrrolidin-3-yl)methyl)-/-isobutyl-2-methylpropan-1-amine], the results for the Ki on human σ2/TMEM97 receptor and on human σ1 receptor were 100 to 500 nM and over 1000 nM, respectively.
On the same counts, the results for `Cc1cc(-c2nn(C)c(Cl)c2CN2CCC(CNCC(C)C)CC2)no1` [Example 43, N-((1-((5-Chloro-1-methyl-3-(5-methylisoxazol-3-yl)-1H-pyrazol-4-yl)methyl)piperidin-4-yl)methyl)-2-methylpropan-1-amine] are 500 to 1000 nM and 500 to 1000 nM.
With `Cc1cc(-c2nn(C)c(Cl)c2CN2CCC(CNCc3ccccc3)C2)no1` (stereo not drawn) [Example 44, N-Benzyl-1-(1-((5-chloro-1-methyl-3-(5-methylisoxazol-3-yl)-1H-pyrazol-4-yl)methyl)pyrrolidin-3-yl)methanamine], the Ki at human σ2/TMEM97 receptor and on human σ1 receptor was 500 to 1000 nM each time.
In the case of `Cc1cc(-c2nn(C)c(Cl)c2CN2CCC(CNCCc3ccccc3)C2)no1` (stereo not drawn) [Example 45, N-((1-((5-Chloro-1-methyl-3-(5-methylisoxazol-3-yl)-1H-pyrazol-4-yl)methyl)pyrrolidin-3-yl)methyl)-2-phenylethanamine], the inhibitory constant (Ki) on human σ2/TMEM97 receptor and at human σ1 receptor was 100 to 500 nM in each case.
For `CCCN(CCC)CC1CCN(Cc2c(-c3cc(C)on3)nn(C)c2Cl)C1` (stereo not drawn) [Example 46, N-((1-((5-Chloro-1-methyl-3-(5-methylisoxazol-3-yl)-1H-pyrazol-4-yl)methyl)pyrrolidin-3-yl)methyl)-N-propylpropan-1-amine], the inhibition constant (Ki) on human σ2/TMEM97 receptor is over 1000 nM; on human σ1 receptor it was 100 to 500 nM.
Take `CCCNCC1CCN(Cc2c(-c3cc(C)on3)nn(C)c2Cl)C1` (stereo not drawn) [Example 47, N-((1-((5-Chloro-1-methyl-3-(5-methylisoxazol-3-yl)-1H-pyrazol-4-yl)methyl)pyrrolidin-3-yl)methyl)propan-1-amine]: the Ki on human σ2/TMEM97 receptor and at human σ1 receptor was over 1000 nM each time.
`Cc1cc(-c2nn(C)c(Cl)c2CN2CCCC(CNCC(C)C)C2)no1` (stereo not drawn) [Example 48, N-((1-((5-Chloro-1-methyl-3-(5-methylisoxazol-3-yl)-1H-pyrazol-4-yl)methyl)piperidin-3-yl)methyl)-2-methylpropan-1-amine]: the Ki at human σ2/TMEM97 receptor is 100 to 500 nM; on human σ1 receptor, over 1000 nM.
`Cc1cc(-c2nn(C)c(Cl)c2CN2CCC(CNCC(C)C)C2)no1` (stereo not drawn) [Example 49, N-((1-((5-Chloro-1-methyl-3-(5-methylisoxazol-3-yl)-1H-pyrazol-4-yl)methyl)pyrrolidin-3-yl)methyl)-2-methylpropan-1-amine]: the inhibition constant Ki on human σ2/TMEM97 receptor is over 1000 nM; on human σ1 receptor, 100 to 500 nM.
For the molecule `Cc1cc(-c2nn(C)c(Cl)c2CN2CCC3(CC2)CCN(CCC(C)(C)C)C3)no1` [Example 50, 3-(5-Chloro-4-((2-(3,3-dimethylbutyl)-2,8-diazaspiro[4.5]decan-8-yl)methyl)-1-methyl-1H-pyrazol-3-yl)-5-methylisoxazole], the inhibition constant (Ki) on human σ2/TMEM97 receptor was under 100 nM; at human σ1 receptor, 100 to 500 nM.
Consider `Cc1cc(-c2nn(C)c(Cl)c2CN2CC3(CCN(CCC(C)(C)C)C3)C2)no1` [Example 51, 3-(5-Chloro-4-((6-(3,3-dimethylbutyl)-2,6-diazaspiro[3.4]octan-2-yl)methyl)-1-methyl-1H-pyrazol-3-yl)-5-methylisoxazole], for which the inhibition constant Ki at human σ2/TMEM97 receptor and at human σ1 receptor was under 100 nM each time.
Regarding `Cc1cc(-c2nn(C)c(Cl)c2CN2CCC3(C2)CN(CCC(C)(C)C)C3)no1` [Example 52, 3-(5-Chloro-4-((2-(3,3-dimethylbutyl)-2,6-diazaspiro[3.4]octan-6-yl)methyl)-1-methyl-1H-pyrazol-3-yl)-5-methylisoxazole], the Ki at human σ2/TMEM97 receptor and at human σ1 receptor was under 100 nM in each case.
`Cc1cc(-c2nn(C)c(Cl)c2CN2CCC3(CCN(CCC(C)(C)C)CC3)CC2)no1` [Example 53, 3-(5-Chloro-4-((9-(3,3-dimethylbutyl)-3,9-diazaspiro[5.5]undecan-3-yl)methyl)-1-methyl-1H-pyrazol-3-yl)-5-methylisoxazole]: the values for the inhibition constant (Ki) at human σ2/TMEM97 receptor and on human σ1 receptor were under 100 nM and 100 to 500 nM, respectively.
As to `Cc1cc(-c2nn(C)c(Cl)c2CN2CCC3(CCN(CCC(C)(C)C)C3)C2)no1` (stereo not drawn) [Example 54, 3-(5-Chloro-4-((7-(3,3-dimethylbutyl)-2,7-diazaspiro[4.4]nonan-2-yl)methyl)-1-methyl-1H-pyrazol-3-yl)-5-methylisoxazole], the Ki at human σ2/TMEM97 receptor and on human σ1 receptor was under 100 nM throughout.
With `Cc1cc(-c2nn(C)c(Cl)c2CN2CCCC(CNCc3ccccc3)C2)no1` (stereo not drawn) [Example 55, N-Benzyl-1-(1-((5-chloro-1-methyl-3-(5-methylisoxazol-3-yl)-1H-pyrazol-4-yl)methyl)piperidin-3-yl)methanamine], the Ki at human σ2/TMEM97 receptor is 100 to 500 nM; at human σ1 receptor it was over 1000 nM.
